The text below walks through data of ChEMBL document CHEMBL1201862, “PubChem BioAssay data set” (2004).

Common to all, as to experiment: growth of human tumour cells (NCI), 48 h
The subject of test [1] is 786-0.
For test [2], the system named is COLO 205.
In test [3] the test system is HCT-15.
Test [4] concerns HL-60.
Test [5] concerns K562.
The test system of test [6] is LXFL 529.
Test [7] has as its system NCI-H460.
In test [8] the test system is OVCAR-4.
For test [9], the system named is SF-539.
Test [10] concerns SK-MEL-2.
For test [11], the system named is TK-10.
Test [12] relates to UO-31.
In test [13] the test system is DMS-114.
For test [14], the system named is SF-295.
The subject of test [15] is BT-549.
For test [16], the system named is Hs-578T.
Test [17] concerns MCF7.
Test [18] has as its system NCI/ADR-RES.
Test [19] relates to PC-3.

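Values below derive from 48-hour exposures of cells grown in 96-well plates, with endpoints linearly interpolated between the two concentrations bracketing the appropriate inhibition level. GI50 marks 50% less growth.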 The source made the active and inactive calls. Rule as the data show it: active = GI50 up to about 1.1 µM and inactive = higher.

Take `CC(=O)OCCOCn1c2ccccc2c2c3c(c4c5ccccc5n(COCCOC(C)=O)c4c21)C(=O)N(Cc1ccccc1)C3=O`: the GI50 in [1] is > 100 µM (inactive); in test [2], > 100 µM (inactive); in test [3] it was more than 100 µM; in [4] it was > 100 µM (inactive); in [5] it was > 100 µM (inactive); in test [6] it was > 100 µM (inactive). In addition, the GI50 in test [7], in test [8], in test [9], in [10], in test [11] and in test [12] was > 100 µM (inactive) throughout.
For the molecule `CCOC(=O)C1=C(C)N2CCOC2(C)C(C(=O)OC)C1c1cccc(Cl)c1` (stereo not drawn), the GI50 in test [1] was > 100 µM (inactive); in test [2], > 100 µM (inactive); in [13] it was 54 µM (inactive); in test [3], more than 100 µM; in [4], 56.4 µM (inactive); in [5], 81.5 µM (inactive). Besides, the GI50 in test [6], in test [7], in test [14], in [9], in [10] and in [11] was > 100 µM (inactive) in each case. Further, the GI50 in test [12] was > 100 µM (inactive).
As to `CC/C(Cl)=N\OC(=O)Nc1ccc(OC)cc1`, the GI50 in test [1] was 1.65 µM (inactive); in test [15], 1.6 µM (inactive); in test [2] it was 2.11 µM (inactive); in [3], 1.6 µM; in test [4], 1.85 µM (inactive); in test [16], 14.4 µM (inactive). In addition, the GI50 in test [5] was 1.98 µM (inactive); in test [17] it was 5.77 µM (inactive); in test [7], 20.2 µM (inactive); in test [18], 6.17 µM (inactive); in test [8], 16.7 µM (inactive); in test [19], 15.9 µM (inactive). In addition, the GI50 in test [14] was 17 µM (inactive); in test [9], 4.89 µM (inactive); in test [10], 18.2 µM (inactive); in test [11], 5.43 µM (inactive); in test [12], 7.94 µM (inactive).
Take `C[C@H](CCC(=O)NCC(=O)O)[C@H]1CC[C@H]2[C@@H]3[C@H](O)C[C@@H]4C[C@H](O)CC[C@]4(C)[C@H]3CC[C@]12C`: the GI50 in test [1] was > 100 µM (inactive); in [15], > 100 µM (inactive); in test [2], > 100 µM (inactive); in test [3], more than 100 µM; in [4] it was > 100 µM (inactive); in test [16] it was > 100 µM (inactive). Further, the GI50 in test [5], in [17], in test [7], in test [18], in test [8] and in test [19] was > 100 µM (inactive) each time. The GI50 in test [14], in test [9], in test [10], in test [11] and in test [12] was > 100 µM (inactive) in each case.
In the case of `COC1OC(CBr)C(OC(=O)c2ccccc2)C(OS(=O)(=O)c2ccc(C)cc2)C1Br` (stereo not drawn), the GI50 was > 100 µM (inactive) in [1]; > 100 µM (inactive) in [2]; more than 100 µM in test [3]; > 100 µM (inactive) in test [4]; > 100 µM (inactive) in test [5]; > 100 µM (inactive) in test [6]. Further, the GI50 in [7], in [8], in [14], in test [9], in test [10] and in test [11] was > 100 µM (inactive) throughout. In addition, the GI50 in test [12] was > 100 µM (inactive).
As to `CC(C)(C)c1ccc(-c2nnc(SCc3ccc(Cl)cc3)n2-c2cccc(C(F)(F)F)c2)cc1`, the GI50 in [1] was 13.9 µM (inactive); in test [15] it was > 93.3 µM (inactive); in [2], 8.83 µM (inactive); in [3], 8.73 µM; in test [4] it was 0.0867 µM (active); in test [16], 45.8 µM (inactive). Also, the GI50 is 4.25 µM (inactive) in test [5]; 5.65 µM (inactive) in [17]; 7.23 µM (inactive) in [7]; 12.4 µM (inactive) in [18]; 7.8 µM (inactive) in test [8]; 6.98 µM (inactive) in test [19]. Moreover, the GI50 in test [14] is 8.43 µM (inactive); in test [9], 54.8 µM (inactive); in [10], 16.8 µM (inactive); in test [11], 39.4 µM (inactive); in test [12] it was 11.6 µM (inactive).
For the molecule `COc1ccc2c(c1OC)C(C=C(c1ccccc1)c1ccccc1)CN(C)C2` (stereo not drawn), the GI50 in test [1] was 16.7 µM (inactive); in test [2], 14.5 µM (inactive); in test [13] it was 13.9 µM (inactive); in test [3] it was 15 µM; in test [5], 6.21 µM (inactive); in test [6], 14.4 µM (inactive). Besides, the GI50 in test [7] was 11.7 µM (inactive); in test [8], 41.4 µM (inactive); in test [14], 16.2 µM (inactive); in [9], 21.9 µM (inactive); in [11] it was 22 µM (inactive); in test [12], 20 µM (inactive).
As for `CC(=O)OCC1OC(n2c3c(cc(C#N)c2=S)CCC3)C(OC(C)=O)C(OC(C)=O)C1OC(C)=O` (stereo not drawn), the GI50 in [1] was > 100 µM (inactive); in test [15] it was > 100 µM (inactive); in test [2] it was > 100 µM (inactive); in [3] it was more than 100 µM; in [4] it was > 100 µM (inactive); in test [16] it was > 100 µM (inactive). Besides, the GI50 in test [5], in test [17], in test [7], in [18], in test [8] and in [19] was > 100 µM (inactive) in each case. Besides, the GI50 in test [14], in test [9], in [10], in test [11] and in [12] was > 100 µM (inactive) throughout.
In the case of `O=C(NCc1cccs1)OC1CC2CCC1C2` (stereo not drawn), the GI50 in test [1] is > 100 µM (inactive); in [15] it was > 100 µM (inactive); in [2], > 100 µM (inactive); in [3], more than 100 µM; in test [4], > 100 µM (inactive); in [16], 81.5 µM (inactive). Moreover, the GI50 in test [5], in [17], in test [7], in test [18], in test [8] and in test [19] was > 100 µM (inactive) throughout. Further, the GI50 in [14], in test [9], in test [10], in test [11] and in test [12] was > 100 µM (inactive) in each case.
`CCOC(=O)/C(C#N)=C(O)/C(=C/c1ccccc1Cl)NC(=O)c1ccccc1`: the GI50 in test [1] was > 100 µM (inactive); in [2] it was > 100 µM (inactive); in test [13], > 100 µM (inactive); in [3] it was 27.7 µM; in [4], > 100 µM (inactive); in [5] it was 88.1 µM (inactive). Also, the GI50 in [6], in test [7], in test [8], in test [14], in test [9] and in test [11] was > 100 µM (inactive) in each case. Also, the GI50 in test [12] is > 100 µM (inactive).
